Laboratory results as given in ChEMBL document CHEMBL2021903, “3-Deoxy-3,4-dehydro analogs of XM462. Preparation and activity on sphingolipid metabolism and cell fate” (Bioorg Med Chem, 2012).
Activity calls are given as the source filed them. No cut-off for these calls is given here.

Columns and labels:
[1] = biological target: T1, Sphingolipid delta(4)-desaturase DES1 (Homo sapiens, UniProt O15121); assay: Inhibition of Des1 in human A549 cells assessed as formation of CerC6NBD from dhCerC6NBD after 4 hrs by HPLC-FD analysis
T1 sequence (O15121 whole entry): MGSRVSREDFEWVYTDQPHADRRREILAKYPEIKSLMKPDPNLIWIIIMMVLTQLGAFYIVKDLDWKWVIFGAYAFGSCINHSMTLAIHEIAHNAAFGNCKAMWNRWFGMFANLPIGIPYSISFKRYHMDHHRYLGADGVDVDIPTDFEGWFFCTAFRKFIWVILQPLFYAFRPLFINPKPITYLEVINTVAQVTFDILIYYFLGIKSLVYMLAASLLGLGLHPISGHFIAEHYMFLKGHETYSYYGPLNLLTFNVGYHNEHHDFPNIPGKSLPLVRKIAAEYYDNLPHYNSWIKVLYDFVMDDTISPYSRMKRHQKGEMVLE

[2] = biological target: T1, Sphingolipid delta(4)-desaturase DES1; assay: Inhibition of Des1 in human HCT116 cells assessed as formation of CerC6NBD from dhCerC6NBD after 4 hrs by HPLC-FD analysis
[3] = biological target: T2, Sphingomyelin phosphodiesterase (Homo sapiens) (UniProt P17405); assay: Inhibition of aSMase expressed in human A549 cells using 6-hexadecanoylamino-4-methylumbelliferylphosphorylcholine as substrate at 10 uM after 2 hrs by spectrophotometry; type: cell-based
T2 sequence (whole entry): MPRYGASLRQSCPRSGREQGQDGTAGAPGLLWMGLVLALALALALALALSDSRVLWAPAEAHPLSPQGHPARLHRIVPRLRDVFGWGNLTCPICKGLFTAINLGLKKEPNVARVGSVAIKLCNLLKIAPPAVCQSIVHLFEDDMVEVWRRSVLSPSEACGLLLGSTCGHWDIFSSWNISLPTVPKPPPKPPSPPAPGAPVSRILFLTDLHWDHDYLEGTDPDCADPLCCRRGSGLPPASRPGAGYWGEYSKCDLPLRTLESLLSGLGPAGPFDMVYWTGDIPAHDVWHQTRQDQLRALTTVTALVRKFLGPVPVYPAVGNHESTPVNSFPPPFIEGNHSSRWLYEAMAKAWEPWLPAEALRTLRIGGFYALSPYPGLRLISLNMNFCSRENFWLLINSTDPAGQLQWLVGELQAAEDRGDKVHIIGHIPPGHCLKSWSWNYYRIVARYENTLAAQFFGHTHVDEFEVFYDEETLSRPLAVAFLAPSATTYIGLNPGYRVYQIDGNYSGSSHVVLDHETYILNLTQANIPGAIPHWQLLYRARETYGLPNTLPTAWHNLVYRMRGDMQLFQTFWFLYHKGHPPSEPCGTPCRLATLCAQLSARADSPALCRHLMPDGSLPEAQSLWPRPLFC

[4] = biological target: T3, Lysosomal acid glucosylceramidase (Homo sapiens) (UniProt P04062); assay: Inhibition of glucocerebrosidase in human A549 cells using 4-methylumbelliferyl beta-D-glucoside as substrate at 10 uM after 45 mins by spectrophotometry; type: cell-based
T3 sequence (whole entry): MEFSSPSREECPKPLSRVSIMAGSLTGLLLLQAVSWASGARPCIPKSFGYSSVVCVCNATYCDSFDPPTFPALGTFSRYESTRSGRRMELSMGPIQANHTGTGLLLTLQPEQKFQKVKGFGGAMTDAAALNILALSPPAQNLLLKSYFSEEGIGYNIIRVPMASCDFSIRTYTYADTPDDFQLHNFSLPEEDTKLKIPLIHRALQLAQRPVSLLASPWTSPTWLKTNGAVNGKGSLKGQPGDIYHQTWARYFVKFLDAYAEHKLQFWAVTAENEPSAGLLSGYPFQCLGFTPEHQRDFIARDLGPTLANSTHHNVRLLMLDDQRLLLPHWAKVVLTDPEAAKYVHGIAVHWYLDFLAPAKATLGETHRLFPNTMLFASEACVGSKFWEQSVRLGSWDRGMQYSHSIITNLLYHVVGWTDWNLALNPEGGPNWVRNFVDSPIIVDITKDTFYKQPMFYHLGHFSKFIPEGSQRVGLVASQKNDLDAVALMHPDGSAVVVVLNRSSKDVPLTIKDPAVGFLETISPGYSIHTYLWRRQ

[5] = biological target: T2, Sphingomyelin phosphodiesterase (Homo sapiens); assay: Inhibition of aSMase expressed in human A549 cells using 6-hexadecanoylamino-4-methylumbelliferylphosphorylcholine as substrate at 20 uM after 2 hrs by spectrophotometry; type: cell-based
[6] = biological target: T3, Lysosomal acid glucosylceramidase (Homo sapiens); assay: Inhibition of glucocerebrosidase in human A549 cells using 4-methylumbelliferyl beta-D-glucoside as substrate at 20 uM after 45 mins by spectrophotometry; type: cell-based
[7] = biological target: T2, Sphingomyelin phosphodiesterase (Homo sapiens); assay: Inhibition of aSMase expressed in human A549 cells using 6-hexadecanoylamino-4-methylumbelliferylphosphorylcholine as substrate at 40 uM after 2 hrs by spectrophotometry; type: cell-based
[8] = biological target: T3, Lysosomal acid glucosylceramidase (Homo sapiens); assay: Inhibition of glucocerebrosidase in human A549 cells using 4-methylumbelliferyl beta-D-glucoside as substrate at 40 uM after 45 mins by spectrophotometry; type: cell-based

Structure (SMILES): CCCCCCCCCCCCCS/C=C/[C@H](CO)NC(=O)CCCCCCC
- IC50 [1]: 18.1 µM
- IC50 [2]: 18.8 µM
- inhibition [3]: inactive
- inhibition [4]: inactive

Structure (SMILES): CCCCCCCCCCCCCS/C=C/[C@H](CO)NC(=O)C(C)(C)C
- inhibition [5]: inactive
- inhibition [6]: inactive

Structure (SMILES): CCCCCCCCCCCCCS/C=C/[C@H](CO)NC(=O)c1ccc(C(C)(C)C)cc1
- inhibition [7]: inactive
- inhibition [8]: inactive
